Results from ChEMBL document CHEMBL5209587, “Membrane potential based assay for SLC23A1 using HEK-293 SLC23A1 OE cells” (2022).

Biological target: Solute carrier family 23 member 1 (Homo sapiens) (UniProt Q9UHI7)
Assay: Substrate uptake and inhibition of the Na(+)/L-Ascorbic Acid Transporter 1 (SVCT1, SLC23A1) as assessed by the fluorescent FLIPR membrane potential dye in HEK-293 JumpIN-SLC23A1 cells (PubChem AID: 1794810)
Format: functional, cell-based
Conditions: HEK293

Sequence of Solute carrier family 23 member 1 (Homo sapiens) (Q9UHI7 whole entry): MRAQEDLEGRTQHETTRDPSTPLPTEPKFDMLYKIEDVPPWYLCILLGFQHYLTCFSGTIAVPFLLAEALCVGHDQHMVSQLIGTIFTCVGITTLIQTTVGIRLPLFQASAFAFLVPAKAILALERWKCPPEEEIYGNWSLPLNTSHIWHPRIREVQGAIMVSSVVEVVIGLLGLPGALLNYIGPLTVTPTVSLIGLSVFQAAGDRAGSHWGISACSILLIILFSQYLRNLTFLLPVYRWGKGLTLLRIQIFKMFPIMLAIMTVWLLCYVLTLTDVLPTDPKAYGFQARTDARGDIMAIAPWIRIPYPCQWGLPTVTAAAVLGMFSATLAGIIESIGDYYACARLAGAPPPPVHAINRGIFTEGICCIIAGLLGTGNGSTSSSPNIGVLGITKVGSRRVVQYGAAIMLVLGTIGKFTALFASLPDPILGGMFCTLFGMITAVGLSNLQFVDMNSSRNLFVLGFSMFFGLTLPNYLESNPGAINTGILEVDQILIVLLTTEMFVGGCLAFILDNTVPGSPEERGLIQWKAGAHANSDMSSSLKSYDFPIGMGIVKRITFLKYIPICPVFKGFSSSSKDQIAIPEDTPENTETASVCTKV

## O=C(CCc1ccc(O)cc1)c1c(O)cc(O)cc1O
  inhibition: Inhibitor: Almost Complete Inhibition At A Concentration Of 300 Μm
